Experiments:
Type in all cases: biochemical
CDK7/CyclinH/MAT1 = CDK7/CyclinH/MAT1 (Homo sapiens (Human), UniProt P50613); assay: CDK7/CyclinH/MAT1 kinase inhibitory activity (Caliper mobility shift)
CDK1/CyclinB = CDK1/CyclinB (Homo sapiens (Human), UniProt P06493); assay: CDK1/CyclinB kinase inhibitory activity (Caliper mobility shift); conditions: read-out: CDK1/Cyclin B1 IC50
CDK9/CyclinT1 = CDK9/CyclinT1 (Homo sapiens (Human), UniProt P50750); assay: CDK9/CyclinT1 kinase inhibitory activity (Caliper mobility shift); conditions: read-out: CDK9/Cyclin T1 IC50
CDK6/CyclinD1 = CDK6/CyclinD1 (Homo sapiens (Human), UniProt Q00534); assay: CDK6/CyclinD1 kinase inhibitory activity (Caliper mobility shift); conditions: read-out: CDK6/Cyclin D1 IC50
CDK2/CyclinE1 = CDK2/CyclinE1 (Homo sapiens (Human), UniProt P24941); assay: CDK2/CyclinE1 kinase inhibitory activity (Caliper mobility shift); conditions: read-out: CDK2/Cyclin El IC50

CDK6/CyclinD1, sequence (Q00534 whole entry): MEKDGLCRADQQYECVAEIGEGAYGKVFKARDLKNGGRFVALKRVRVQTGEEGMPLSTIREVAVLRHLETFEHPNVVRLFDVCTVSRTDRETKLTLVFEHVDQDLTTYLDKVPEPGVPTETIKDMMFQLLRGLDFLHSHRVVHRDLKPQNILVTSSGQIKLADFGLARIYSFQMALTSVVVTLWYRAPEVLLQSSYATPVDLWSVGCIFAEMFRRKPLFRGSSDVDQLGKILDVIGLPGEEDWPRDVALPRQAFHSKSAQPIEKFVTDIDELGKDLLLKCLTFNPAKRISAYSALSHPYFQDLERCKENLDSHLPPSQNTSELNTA
CDK6/CyclinD1, sequence (P24385 whole entry partner): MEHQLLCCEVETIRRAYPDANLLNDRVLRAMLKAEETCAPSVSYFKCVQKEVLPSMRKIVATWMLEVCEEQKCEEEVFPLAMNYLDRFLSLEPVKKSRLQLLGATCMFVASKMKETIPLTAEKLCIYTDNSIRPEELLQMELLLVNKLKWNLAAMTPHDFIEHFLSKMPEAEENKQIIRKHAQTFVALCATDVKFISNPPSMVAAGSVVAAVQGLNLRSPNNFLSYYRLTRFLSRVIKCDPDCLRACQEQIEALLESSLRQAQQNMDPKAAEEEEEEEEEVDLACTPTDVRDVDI
CDK7/CyclinH/MAT1, sequence (P50613 whole entry): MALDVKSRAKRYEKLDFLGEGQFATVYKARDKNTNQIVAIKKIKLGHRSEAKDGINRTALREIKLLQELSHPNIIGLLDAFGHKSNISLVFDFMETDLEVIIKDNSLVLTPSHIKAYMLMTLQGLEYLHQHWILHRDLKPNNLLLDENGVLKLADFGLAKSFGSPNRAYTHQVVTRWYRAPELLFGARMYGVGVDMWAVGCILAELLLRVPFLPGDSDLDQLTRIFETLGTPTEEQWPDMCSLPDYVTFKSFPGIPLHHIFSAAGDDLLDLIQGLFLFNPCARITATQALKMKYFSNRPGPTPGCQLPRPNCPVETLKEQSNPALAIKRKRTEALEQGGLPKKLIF
CDK7/CyclinH/MAT1, sequence (P51946 whole entry partner): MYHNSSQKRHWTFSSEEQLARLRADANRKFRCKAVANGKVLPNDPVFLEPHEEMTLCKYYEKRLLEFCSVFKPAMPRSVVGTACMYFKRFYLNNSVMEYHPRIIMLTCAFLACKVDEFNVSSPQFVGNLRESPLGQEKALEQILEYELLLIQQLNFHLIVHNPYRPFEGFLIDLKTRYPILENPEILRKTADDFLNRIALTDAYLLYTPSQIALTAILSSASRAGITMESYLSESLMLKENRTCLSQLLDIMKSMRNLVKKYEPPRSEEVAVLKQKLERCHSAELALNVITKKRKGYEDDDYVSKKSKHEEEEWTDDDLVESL
CDK7/CyclinH/MAT1, sequence (P51948 whole entry partner): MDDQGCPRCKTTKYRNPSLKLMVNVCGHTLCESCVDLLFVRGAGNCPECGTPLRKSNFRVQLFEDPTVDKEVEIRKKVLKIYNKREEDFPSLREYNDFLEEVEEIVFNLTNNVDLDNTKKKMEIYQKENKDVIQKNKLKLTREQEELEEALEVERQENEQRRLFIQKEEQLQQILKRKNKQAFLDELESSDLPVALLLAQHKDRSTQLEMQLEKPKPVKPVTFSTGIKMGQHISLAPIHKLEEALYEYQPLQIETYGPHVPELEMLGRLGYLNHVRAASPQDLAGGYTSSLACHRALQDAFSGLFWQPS
CDK9/CyclinT1, sequence (P50750 whole entry): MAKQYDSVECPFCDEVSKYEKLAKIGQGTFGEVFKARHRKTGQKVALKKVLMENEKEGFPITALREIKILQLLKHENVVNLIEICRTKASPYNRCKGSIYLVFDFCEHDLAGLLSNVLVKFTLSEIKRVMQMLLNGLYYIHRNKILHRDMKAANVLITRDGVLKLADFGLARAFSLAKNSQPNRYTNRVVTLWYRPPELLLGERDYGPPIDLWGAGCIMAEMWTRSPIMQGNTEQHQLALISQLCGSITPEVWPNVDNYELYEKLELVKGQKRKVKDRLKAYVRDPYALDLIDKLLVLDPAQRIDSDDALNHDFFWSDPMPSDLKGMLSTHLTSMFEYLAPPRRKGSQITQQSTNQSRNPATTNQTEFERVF
CDK9/CyclinT1, sequence (O60563 whole entry partner): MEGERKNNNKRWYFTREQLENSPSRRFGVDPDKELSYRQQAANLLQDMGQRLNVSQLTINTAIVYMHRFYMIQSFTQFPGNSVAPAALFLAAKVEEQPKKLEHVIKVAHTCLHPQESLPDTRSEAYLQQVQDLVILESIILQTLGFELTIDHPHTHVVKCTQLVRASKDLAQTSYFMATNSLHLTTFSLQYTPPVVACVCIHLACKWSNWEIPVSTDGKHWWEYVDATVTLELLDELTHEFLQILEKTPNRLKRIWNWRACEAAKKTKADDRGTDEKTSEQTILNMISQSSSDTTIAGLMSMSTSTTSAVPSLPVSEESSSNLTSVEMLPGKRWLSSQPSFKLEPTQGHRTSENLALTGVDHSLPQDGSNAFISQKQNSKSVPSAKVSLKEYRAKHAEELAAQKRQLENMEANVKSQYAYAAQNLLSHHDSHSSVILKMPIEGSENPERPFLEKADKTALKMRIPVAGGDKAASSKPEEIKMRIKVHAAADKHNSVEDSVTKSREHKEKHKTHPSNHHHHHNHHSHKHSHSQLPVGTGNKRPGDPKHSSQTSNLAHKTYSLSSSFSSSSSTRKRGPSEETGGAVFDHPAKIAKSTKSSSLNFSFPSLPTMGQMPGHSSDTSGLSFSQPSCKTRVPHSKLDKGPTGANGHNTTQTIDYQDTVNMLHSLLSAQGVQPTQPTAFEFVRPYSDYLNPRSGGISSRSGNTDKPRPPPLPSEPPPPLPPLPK
CDK1/CyclinB, sequence (P06493 whole entry): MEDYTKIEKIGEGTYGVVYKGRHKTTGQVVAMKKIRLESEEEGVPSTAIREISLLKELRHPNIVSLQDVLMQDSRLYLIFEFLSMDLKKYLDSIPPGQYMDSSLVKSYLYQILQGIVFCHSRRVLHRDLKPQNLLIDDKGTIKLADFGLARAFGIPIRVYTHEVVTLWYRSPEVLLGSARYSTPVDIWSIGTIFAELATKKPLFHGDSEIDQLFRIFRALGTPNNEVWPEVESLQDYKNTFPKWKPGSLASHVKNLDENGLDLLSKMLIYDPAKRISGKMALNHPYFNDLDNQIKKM
CDK1/CyclinB, sequence (P14635 whole entry partner): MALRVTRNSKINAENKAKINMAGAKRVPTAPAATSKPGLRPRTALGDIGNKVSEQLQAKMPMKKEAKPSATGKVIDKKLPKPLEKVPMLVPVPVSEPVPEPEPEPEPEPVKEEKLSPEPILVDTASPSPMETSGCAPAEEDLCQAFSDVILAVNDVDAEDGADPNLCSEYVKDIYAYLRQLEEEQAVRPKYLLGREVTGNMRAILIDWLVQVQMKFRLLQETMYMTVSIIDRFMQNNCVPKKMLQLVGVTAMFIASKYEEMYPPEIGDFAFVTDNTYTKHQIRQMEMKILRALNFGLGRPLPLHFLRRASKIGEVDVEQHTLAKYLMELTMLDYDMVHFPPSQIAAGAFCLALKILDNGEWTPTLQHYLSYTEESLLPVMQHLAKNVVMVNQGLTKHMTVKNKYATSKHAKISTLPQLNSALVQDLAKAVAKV

Row | SMILES | IC50 (CDK7/CyclinH/MAT1) [nM] | IC50 (CDK1/CyclinB) [nM] | IC50 (CDK9/CyclinT1) [nM] | IC50 (CDK6/CyclinD1) [nM] | IC50 (CDK2/CyclinE1) [nM]
1 | CC1(COc2nc(Nc3ccc(S(N)(=O)=O)cc3)ncc2C#N)CCCCC1 [Example 14] | ≥ 1000 | 100 to 1000 | 100 to 1000 | ≥ 1000 | 10 to 100
2 | NS(=O)(=O)c1ccc(Nc2ncc(C(F)(F)F)c(OC3CCCCCC3O)n2)cc1 (single isomer, unassigned) [Example 118a] | 100 to 1000 | < 10 | < 10 | – | < 10
3 | N#Cc1cnc(Nc2ccc(S(N)(=O)=O)cc2)nc1-c1ccc(O)cc1 [Example 92, 4-((5-cyano-4-(4-hydroxyphenyl)pyrimidin-2-yl)amino)benzenesulfonamide] | ≥ 1000 | 10 to 100 | 100 to 1000 | 100 to 1000 | < 10
4 | C[C@@H]1CCCN(c2nc(Nc3ccc(S(N)(=O)=O)cc3)ncc2C#N)C1 [Example 72] | ≥ 1000 | 100 to 1000 | 100 to 1000 | 100 to 1000 | 10 to 100
5 | CS(=O)(=O)N1CCC(Nc2ncc(C(F)(F)F)c(OC3CCCCCC3O)n2)CC1 (single isomer, unassigned) [Example 121a] | 10 to 100 | 10 to 100 | 100 to 1000 | – | < 10
6 | [2H]C([2H])([2H])NS(=O)(=O)c1ccc(Nc2ncc(C(F)(F)F)c(OC3CCOCCC3O)n2)cc1 (single isomer, unassigned) [Example 102c, 4-((4-((5-hydroxyoxepan-4-yl)oxy)-5-(trifluoromethyl)pyrimidin-2-yl)amino)-N-(methyl-d3)benzenesulfonamide] | ≥ 1000 | 100 to 1000 | – | 100 to 1000 | –
7 | N#Cc1cnc(Nc2ccc(S(N)(=O)=O)cc2)nc1N1CCC[C@H](O)C1 [Example 69] | 100 to 1000 | 10 to 100 | 100 to 1000 | – | < 10
8 | [2H]C([2H])([2H])NS(=O)(=O)c1ccc(Nc2ncc(C(F)(F)F)c(OC3CCOCCC3O)n2)cc1 (single isomer, unassigned) [Example 102d, 4-((4-((5-hydroxyoxepan-4-yl)oxy)-5-(trifluoromethyl)pyrimidin-2-yl)amino)-N-(methyl-d3)benzenesulfonamide] | ≥ 1000 | 100 to 1000 | – | 100 to 1000 | –
9 | N#Cc1cnc(Nc2ccc(S(N)(=O)=O)cc2)nc1N1CCCC1 [Example 67] | ≥ 1000 | 100 to 1000 | 100 to 1000 | – | 10 to 100
10 | NS(=O)(=O)N1CCC(Nc2ncc(C(F)(F)F)c(OC3CCCCCC3O)n2)CC1 (single isomer, unassigned) [Example 122b] | 10 to 100 | 10 to 100 | 10 to 100 | – | < 10
11 | NS(=O)(=O)c1ccc(Nc2ncc(C(F)(F)F)c(OC3COCCC3O)n2)cc1 (single isomer, unassigned) [Example 115a] | 10 to 100 | 10 to 100 | – | – | < 10
12 | [2H]C([2H])([2H])NS(=O)(=O)c1ccc(Nc2ncc(C(F)(F)F)c(OC3CCOCCC3O)n2)cc1 (single isomer, unassigned) [Example 102b, 4-((4-((5-hydroxyoxepan-4-yl)oxy)-5-(trifluoromethyl)pyrimidin-2-yl)amino)-N-(methyl-d3)benzenesulfonamide] | 100 to 1000 | 10 to 100 | – | 100 to 1000 | –
13 | CS(=O)(=O)N1CCC(Nc2ncc(C#N)c(N3CCCCC3)n2)CC1 [Example 89] | ≥ 1000 | 100 to 1000 | ≥ 1000 | – | 10 to 100
14 | NS(=O)(=O)c1ccc(Nc2ncc(C(F)(F)F)c(O[C@@H]3CCC[C@@H]3O)n2)cc1 (single isomer, unassigned) [Example 99b, cis-4-((4-((2-hydroxycyclopentyl)oxy)-5-(trifluoromethyl)pyrimidin-2-yl)amino)benzenesulfonamide] | – | 10 to 100 | 100 to 1000 | – | < 10
15 | Cc1cnc(Nc2ccc(S(=O)(=O)NC(C)C)cc2)nc1OC1CCCC1O (single isomer, unassigned) [Example 147b] | – | 100 to 1000 | 100 to 1000 | – | 10 to 100
16 | NS(=O)(=O)c1ccc(Nc2ncc(C(F)(F)F)c(O[C@H]3[C@@H]4CC[C@@H](C4)[C@H]3O)n2)cc1 (single isomer, unassigned) [Example 113b] | – | 10 to 100 | 100 to 1000 | – | < 10
17 | CNS(=O)(=O)N1CCC(Nc2ncc(C(F)(F)F)c(OC3CCCCCC3O)n2)CC1 (single isomer, unassigned) [Example 123a] | – | 100 to 1000 | 100 to 1000 | – | 10 to 100
18 | CNS(=O)(=O)c1ccc(Nc2ncc(C(F)(F)F)c(O[C@H]3CCCOC[C@H]3O)n2)cc1 (single isomer, unassigned) [Example 103b, cis-4-((4-((3-hydroxyoxepan-4-yl)oxy)-5-(trifluoromethyl)pyrimidin-2-yl)amino)-N-(methyl-d3)benzenesulfonamide] | – | – | – | 100 to 1000 | < 10
19 | NS(=O)(=O)c1ccc(Nc2ncc(Cl)c(OC3CCCC3O)n2)cc1 (single isomer, unassigned) [Example 136b] | – | 10 to 100 | 100 to 1000 | – | < 10

Row | SMILES | IC50 (CDK7/CyclinH/MAT1) [nM] | IC50 (CDK1/CyclinB) [nM] | IC50 (CDK9/CyclinT1) [nM] | IC50 (CDK6/CyclinD1) [nM] | IC50 (CDK2/CyclinE1) [nM]
20 | [2H]C([2H])([2H])NS(=O)(=O)c1ccc(Nc2ncc(C(F)(F)F)c(OC3COCCC3O)n2)cc1 (single isomer, unassigned) [Example 117b] | – | 100 to 1000 | ≥ 1000 | – | 10 to 100
21 | C[C@]1(O)CCC[C@H]1Oc1nc(NC2CCN(S(C)(=O)=O)CC2)ncc1C#N (relative stereo) [Example 3a, cis-4-((2-hydroxy-2-methylcyclopentyl)oxy)-2-((1-(methylsulfonyl)piperidin-4-yl)amino)pyrimidine-5-carbonitrile] | – | 100 to 1000 | ≥ 1000 | – | 10 to 100
22 | O=S(=O)(NC1CCOCC1)c1ccc(Nc2ncc(Cl)c(O[C@@H]3CCC[C@@H]3O)n2)cc1 (single isomer, unassigned) [Example 130b, cis-4-((5-chloro-4-((2-hydroxycyclopentyl)oxy)pyrimidin-2-yl)amino)-N-(tetrahydro-2H-pyran-4-yl)benzenesulfonamide] | – | 10 to 100 | 100 to 1000 | – | 10 to 100
23 | N#Cc1cnc(Nc2ccc(S(N)(=O)=O)cc2)nc1N1CCC[C@@H](O)C1 [Example 70] | ≥ 1000 | 100 to 1000 | 100 to 1000 | – | 10 to 100
24 | Cc1cnc(Nc2ccc(S(=O)(=O)NC3CC3)cc2)nc1OC1CCCC1O (single isomer, unassigned) [Example 146b] | – | 100 to 1000 | ≥ 1000 | – | 10 to 100
25 | N#Cc1cnc(Nc2ccc(S(N)(=O)=O)cc2)nc1OC1CCCC1CO (single isomer, unassigned) [Example 18b] | – | 10 to 100 | 100 to 1000 | – | < 10
26 | N#Cc1cnc(Nc2ccc(S(N)(=O)=O)cc2)nc1OC1CCCC(O)C1 (single isomer, unassigned) [Example 21b] | – | 100 to 1000 | 100 to 1000 | – | 10 to 100
27 | N#Cc1cnc(Nc2ccc(S(N)(=O)=O)cc2)nc1OC1CCCCCC1O (single isomer, unassigned) [Example 22b] | – | 10 to 100 | 100 to 1000 | – | < 10
28 | CC(C)NS(=O)(=O)c1ccc(Nc2ncc(C#N)c(OC3CCC(O)C3)n2)cc1 (single isomer, unassigned) [Example 29b] | – | 10 to 100 | 100 to 1000 | – | < 10
29 | CS(=O)(=O)N1CCC(Nc2ncc(C(F)(F)F)c(OC3CCCCCC3O)n2)CC1 (single isomer, unassigned) [Example 121b] | – | 100 to 1000 | 100 to 1000 | – | 10 to 100
30 | NS(=O)(=O)c1ccc(Nc2ncc(C(F)(F)F)c(OC3CCCCC3O)n2)cc1 (single isomer, unassigned) [Example 111a] | – | 100 to 1000 | 100 to 1000 | – | < 10
31 | N#Cc1cnc(Nc2ccc(S(N)(=O)=O)cc2)nc1O[C@@H]1CCCC[C@@H]1O (single isomer, unassigned) [Example 2b, cis-4-((5-cyano-4-((2-hydroxycyclohexyl)oxy)pyrimidin-2-yl)amino)benzenesulfonamide] | – | 100 to 1000 | ≥ 1000 | – | 10 to 100
32 | N#Cc1cnc(Nc2ccc(S(N)(=O)=O)cc2)nc1OC1CCCC(O)C1 (single isomer, unassigned) [Example 21a] | – | 100 to 1000 | 100 to 1000 | – | < 10
33 | CC1(O)CCCC1Oc1nc(Nc2ccc(S(N)(=O)=O)cc2)ncc1C#N (single isomer, unassigned) [Example 23b] | – | 100 to 1000 | 100 to 1000 | – | 10 to 100
34 | [2H]C([2H])([2H])NS(=O)(=O)c1ccc(Nc2ncc(Br)c(OC3CCCC3O)n2)cc1 (single isomer, unassigned) [Example 143b] | – | 100 to 1000 | 100 to 1000 | – | < 10
35 | N#Cc1cnc(Nc2ccc(S(=O)(=O)NC3CC(F)C3)cc2)nc1OC1CCCCC1O (single isomer, unassigned) [Example 31b] | – | 100 to 1000 | ≥ 1000 | – | 10 to 100
36 | CC(C)CS(=O)(=O)N1CCC(Nc2ncc(C#N)c(OC3CCCC3(C)O)n2)CC1 (single isomer, unassigned) [Example 39b] | – | 100 to 1000 | ≥ 1000 | – | 10 to 100
37 | [2H]C1([2H])CC(O)C(Oc2nc(Nc3ccc(S(=O)(=O)NC([2H])([2H])[2H])cc3)ncc2C(F)(F)F)C1 (single isomer, unassigned) [Example 110b] | – | 100 to 1000 | 100 to 1000 | – | < 10
38 | NS(=O)(=O)c1ccc(Nc2ncc(C(F)(F)F)c(OC3CCCCCC3O)n2)cc1 (single isomer, unassigned) [Example 118b] | – | 10 to 100 | 10 to 100 | – | < 10

From patent publication US20240166635A1, “AMINOHETEROARYL KINASE INHIBITORS” (Anrui Biomedical Technology (Guangzhou) Co.,Ltd., priority 2020, published 2024)
